In general, AUC refers to concentration integrated over time.

The nature of data set [1]: in vitro dissolution test, microcentrifuge method, PBS (Drug 1 compositions). To be noted: for AUC90: area under aqueous concentration versus time curve after 90 minutes; for AUC90 / C1200 / Cmax, 90: PBS, dosage 2000 μg/mL; for C1200: concentration at 1200 minutes; for Cmax, 90: maximum concentration of Drug 1 in solution during first 90 minutes; for AUC / Drug Concentration: PBS pH 6.5, 37° C. Format: physicochemical. The method, then:
In vitro dissolution tests were performed to evaluate the performance of the amorphous dispersions of Examples 1-9 relative to the performance of Controls 1 and 2. The dissolution performance of the SDD of Example 1 was evaluated in an in vitro dissolution test using a microcentrifuge method. In this test, 14.4 mg of the SDD of Example 1 was added to a microcentrifuge tube. The tube was placed in a 37° C. sonicating bath, and 1.8 mL phosphate buffered saline (PBS) at pH 6.5 and 290 mOsm/kg was added. The samples were quickly mixed using a vortex mixer for about 60 seconds. The samples were centrifuged at 13,000 G at 37° C. for 1 minute. The resulting supernatant solution was then sampled and diluted 1:6 (by volume) with methanol and then analyzed by high-performance liquid chromatography (HPLC). The contents of the tubes were mixed on the vortex mixer and allowed to stand undisturbed at 37° C. until the next sample was taken. Samples were collected at 4, 10, 20, 40, 90, and 1200 minutes.
The performance of Example Nos. 2-8 was likewise evaluated in in vitro dissolution tests using the same microcentrifuge method described above. The dosage for each of these tests was 2000 μg/ml.
The performance of the amorphous dispersions of Example 9 were tested using the same microcentrifuge method, except that 2.5 grams of the coated beads were added to 50 mL of PBS solution (resulting in a dosage of 2000 μg/mL).
For Controls 1 and 2, in vitro dissolution tests were also performed using the same microcentrifuge method except that 3.6 mg of either crystalline or amorphous Drug 1 was used.
These compositions were evaluated in in vitro dissolution tests using the procedures outlined in Example 10. The quantities of drug and polymer noted above were each added to a microcentrifuge tube, to which was added 1.8 ml of PBS solution. The tube was vortexed immediately after adding the PBS solution.
A coating solution comprising 7.5 wt % HPMCAS-MF dissolved in 92.5 wt % solvent (5 wt % water in acetone) was prepared and spray-coated onto Nu-Core Beads (45/60 mesh), producing a thin coating of the polymer on the surface of the beads resulting in beads containing 12.2 wt % HPMCAS-MF. Samples of these beads (2.4 gm) were then mixed with 100 mg of amorphous Drug 1 (resulting in a drug:polymer ratio of 1:3 or 25 wt % Drug 1) and evaluated in an in vitro dissolution test using the procedures outlined in Example 10.
A composition was formed by blending 50 wt % of the SDD of Example 2 (containing 50 wt % Drug 1 and 50 wt % HPMCAS-MF) with 50 wt % HPMCAS-MF. This composition was evaluated in a dissolution test as described in Example 10.

Data set [2] can be described thus: in vitro dissolution test, microcentrifuge method, model fasted duodenal solution (Drug 2 compositions). In kind it is physicochemical. Set-up: AUC: concentration or dose not given beside the values. The following applies: for AUC90: aqueous area under the curve after 90 minutes; for AUC90 / C1200 / Cmax, 90 / AUC: MFDS; for AUC90 / C1200 / Cmax, 90: dosage 1000 μg/mL; for C1200: concentration at 1200 minutes; for Cmax, 90: maximum concentration of Drug 2 in solution during first 90 minutes; for Drug Concentration: MFDS pH 6.5, 37° C. The method, then: In vitro dissolution tests were performed to evaluate the performance of the amorphous dispersions of Examples 12-17 relative to the performance of Controls 4 and 5. The SDD of Example 12 was evaluated in an in vitro dissolution test using a microcentrifuge method. In this test, 3600 μg of the SDD of Example 12 was added to a microcentrifuge tube. The tube was placed in a 37° C. sonicating bath, and 1.8 mL of model fasted duodenal solution (MFDS), comprising phosphate buffered saline with 14.7 mM sodium taurocholic acid and 2.8 mM of 1-palmitoyl-2-oleyl-sn-glycero-3-phosphocholine, pH 6.5, 290 mOsm/kg, was added. […] The samples were quickly mixed using a vortex mixer for about 60 seconds. The samples were centrifuged at 13,000 G at 37° C. for 1 minute. The resulting supernatant solution was then sampled and diluted 1:6 (by volume) with methanol and then analyzed by high-performance liquid chromatography (HPLC). The contents of the tubes were mixed on the vortex mixer and allowed to stand undisturbed at 37° C. until the next sample was taken. Samples were collected at 4, 10, 20, 40, 90, and 1200 minutes.
For Controls 4 and 5, in vitro dissolution tests were performed using the procedures described above except that 1.8 mg of crystalline and amorphous Drug 2 was used, respectively.

For `O=C(N[C@@H](Cc1ccccc1)[C@@H](O)C(=O)N1C[C@@H](O)[C@@H](O)C1)c1cc2cc(Cl)ccc2[nH]1` [Control 1], in data set [1], the AUC90 is reported as 12,800 min* μg/mL. For the same compound, the C1200 in data set [1] came out at 125 µg/mL. Also, the “Cmax, 90” value in data set [1] amounted to 149 µg/mL. The AUC in data set [1] (time 0 min) was 0 µg·min/mL; in data set [1] (time 4 min), 260 µg·min/mL; in data set [1] (time 10 min) it was 1,100 min* μg/mL; in data set [1] (time 20 min), 2,500 min* μg/mL; in data set [1] (time 40 min), 5,400 min* μg/mL; in data set [1] (time 90 min), 12,800 min* μg/mL. In data set [1] (time 1200 min), the exposure (AUC) was 163,800 min* μg/mL. The “Drug Concentration” value in data set [1] (time 0 min) was 0 µg/mL; in data set [1] (time 4 min), 130 µg/mL; in data set [1] (time 10 min), 149 µg/mL; in data set [1] (time 20 min), 139 µg/mL; in data set [1] (time 40 min), 149 µg/mL; in data set [1] (time 90 min), 147 µg/mL. Moreover, the “Drug Concentration” value in data set [1] (time 1200 min) was found to be 125 µg/mL.
With `O=C(N[C@@H](Cc1ccccc1)[C@@H](O)C(=O)N1C[C@@H](O)[C@@H](O)C1)c1cc2cc(Cl)ccc2[nH]1` [Control 2], in data set [1], the AUC90 is 20,600 min* μg/mL. Further, the C1200 in data set [1] is 203 µg/mL. Further, the “Cmax, 90” value in data set [1] stood at 586 µg/mL. Further, the AUC in data set [1] (time 0 min) was 0 µg·min/mL; in data set [1] (time 4 min), 1,200 min* μg/mL; in data set [1] (time 10 min), 4,400 min* μg/mL; in data set [1] (time 20 min), 7,800 min* μg/mL; in data set [1] (time 40 min) it was 11,700 min* μg/mL; in data set [1] (time 90 min), 20,600 min* μg/mL. Further, the AUC in data set [1] (time 180 min) was 35,200 min* μg/mL; in data set [1] (time 1200 min) it was 225,900 min* μg/mL. Moreover, the “Drug Concentration” value in data set [1] (time 0 min) came out at 0 µg/mL; in data set [1] (time 4 min), 586 µg/mL; in data set [1] (time 10 min), 473 µg/mL; in data set [1] (time 20 min) it was 220 µg/mL; in data set [1] (time 40 min) it was 182 µg/mL; in data set [1] (time 90 min), 167 µg/mL. The “Drug Concentration” value in data set [1] (time 180 min) stood at 158 µg/mL; in data set [1] (time 1200 min), 203 µg/mL.
For `O=C(N[C@@H](Cc1ccccc1)C(=O)N1CC(O)C1)c1cc2cc(Cl)ccc2[nH]1` [Control 4], in data set [2], the AUC90 is 5,900 min* μg/mL. The compound further gave a C1200 in data set [2] of 102 µg/mL. Moreover, the “Cmax, 90” value in data set [2] came to 82 µg/mL. Moreover, the AUC in data set [2] (time 0 min) is 0 µg·min/mL; in data set [2] (time 4 min), 90 µg·min/mL; in data set [2] (time 10 min), 357 µg·min/mL; in data set [2] (time 20 min), 842 µg·min/mL; in data set [2] (time 40 min) it was 2,100 min* μg/mL; in data set [2] (time 90 min) it was 5,900 min* μg/mL. The AUC in data set [2] (time 1200 min) is 108,100 min* μg/mL. In addition, the “Drug Concentration” value is 0 µg/mL in data set [2] (time 0 min); 45 µg/mL in data set [2] (time 4 min); 44 µg/mL in data set [2] (time 10 min); 53 µg/mL in data set [2] (time 20 min); 72 µg/mL in data set [2] (time 40 min); 82 µg/mL in data set [2] (time 90 min). Moreover, in data set [2] (time 1200 min), the “Drug Concentration” value stood at 102 µg/mL.
Turning to `O=C(N[C@@H](Cc1ccccc1)C(=O)N1CC(O)C1)c1cc2cc(Cl)ccc2[nH]1` [Control 5], the AUC90 in data set [2] is 20,800 min* μg/mL. In data set [2], the C1200 worked out at 370 µg/mL. The “Cmax, 90” value in data set [2] amounted to 268 µg/mL. The AUC in data set [2] (time 0 min) is 0 µg·min/mL; in data set [2] (time 4 min), 302 µg·min/mL; in data set [2] (time 10 min), 1,400 min* μg/mL; in data set [2] (time 20 min), 3,500 min* μg/mL; in data set [2] (time 40 min), 8,100 min* μg/mL; in data set [2] (time 90 min), 20,800 min* μg/mL. In addition, the AUC in data set [2] (time 1200 min) is on record as 374,900 min* μg/mL. In addition, the “Drug Concentration” value is 0 µg/mL in data set [2] (time 0 min); 151 µg/mL in data set [2] (time 4 min); 203 µg/mL in data set [2] (time 10 min); 225 µg/mL in data set [2] (time 20 min); 238 µg/mL in data set [2] (time 40 min); 268 µg/mL in data set [2] (time 90 min). The “Drug Concentration” value in data set [2] (time 1200 min) turned out to be 370 µg/mL.

(Values after patent US20010053778A1, “Pharmaceutical compositions of glycogen phosphorylase inhibitors” (priority 2000, published 2001).)
